Experimental data published in patent EP2985276A1, “FORMULATIONS BASED ON NANOEMULSIONS AND THE USE THEREOF FOR TREATING OBESITY” (Fundación Pública Andaluza Para La Investigación de Malaga …, priority 2013, dated 2014).

Tested on: 24 h food-deprived Wistar rats
Test: Acute feeding study: cumulative food intake after i.p. or oral administration
Assay type: in vivo
Experimental: The experiments were performed on male Wistar rats weighing 300-350 g. The animals were housed individually under a 12 h light/dark cycle in a room with temperature and humidity control. The rats had ad libitum access to food and water, except during the feeding studies. Prior to the experiments, animals were acclimated to the handling.
For the acute feeding studies, the nanoemulsion G-F68 or Tween 20 were prepared in 5% in saline.
Regarding the acute studies with OEA, the drug was obtained from Tocris Bioscience (Bristol, UK). It was administered in a solution contained the nanoemulsion G-F68 (5%) and saline (95%) prepared in fresh the same day of the experiment. The doses tested were: • a) 1, 5 and 10 mg/kg of OEA for the intraperitoneal acute studies. The volume of the administration was 1 ml/kg. • b) 1, 10 and 50 mg/kg of OEA for the oral acute studies. The volume of the administration was 3 ml/kg.
The hypophagic actions of the N-acylethanolamine OEA were evaluated using the nanoemulsion G-F68 as delivery system (vehicle). For these experiments, we used animals habituated to the experimental protocols. To this end, 48 h before each experiment, the bedding was removed and replaced by small food containers into the cage for 4 h. After this initial phase, the animals were deprived of food for 24 h, but had free access to water. The different treatments were administered 15 min prior access to food. Animals were then returned to their home cages and a measured amount of food (30-40 g) was placed into the cages (t = 0 h). Food pellets were weighed at time intervals of 15, 30, 60, 120 and 240 min, and 24 h after the acute treatment.

Question: For CCCCCCCC/C=C\CCCCCCCC(=O)NCCO [OEA, N-oleoylethanolamine], which food intake (OEA 1 mg/kg oral (i.g., 3 ml/kg) in G-F68, vs G-F68 group, p<0.01 at 240 min) is on record?
Answer: significant decrease in food intake

Question: What about the food intake (OEA 5 mg/kg i.p. in G-F68 (5% in saline), vs nanoemulsion group, p<0.001 at 15 min, p<0.05 at 30 min) of the same compound?
Answer: significant reduction on food intake

Question: What about the food intake (OEA 10 mg/kg i.p. in G-F68 (5% in saline), vs nanoemulsion group, p<0.001 at 15, 30 and 60 min) of the same compound?
Answer: significant reduction on food intake

Question: What about the food intake (OEA 10 mg/kg oral (i.g., 3 ml/kg) in G-F68, vs G-F68 group, p<0.05 at 240 min) of the same compound?
Answer: significant decrease in food intake

Question: What about the food intake (OEA 50 mg/kg oral (i.g., 3 ml/kg) in G-F68, vs G-F68 group, significant at 15, 30, 60, 120, 240 min and 24 h) of the same compound?
Answer: significant decrease in food intake

Question: And the food intake (OEA 50 mg/kg oral (i.g., 3 ml/kg) prepared in Tween 20, vs vehicle Tween 20 group, p<0.05)?
Answer: significant decrease in food intake only at 30 and 60 min

Question: And the feeding (OEA 50 mg/kg oral (i.g., 3 ml/kg) within nanoemulsion G-F68, vs its vehicle group (Figure 7), 15 min to 24 h)?
Answer: prolonged and significant reduction of feeding at all times

Question: What about the cumulative food intake (OEA i.p., the different doses (1, 5, 10 mg/kg) in G-F68, 24 h after administration, vs vehicle group) of the same compound?
Answer: no effects on cumulative food intake
